Laboratory results as given in patent publication US20160150766A1, “ADVANCING GENETIC GAIN IN BOVINE” (priority 2013, published 2016).

Tested on: prepubescent calves
Experiment: Laparoscopic oocyte retrieval from superstimulated prepubescent calves
Format: in vivo, bovine
Conditions: calves 3.5-6 months of age, superstimulated: progesterone CIDR, FSH s.c. at 12-hour intervals (20/15/10 mg/dose), 50 mg LH i.v.; aspiration 23 hours after LH
Method: Laparoscopic oocyte retrieval in prepubescent calves younger than six months of age provides an avenue of shortening the generation interval, thus increasing the rate of genetic gain. […] Three laparoscopic oocyte retrievals were performed on each calf, and the oocytes collected were fertilized in vitro and cultured to the blastocyst stage of development. Resulting embryos were transferred fresh into synchronized recipients, and pregnancies were carried out to Day 60. On average, nine oocytes were retrieved per aspiration when the calves were superstimulated. An average of six oocytes were retrieved from calves that had no FSH treatment.
Calves 3.5-6 months of age were used as egg donors. Initially a progesterone releasing device designed for sheep (Eazi Breed CIDR, Zoetis, USA) containing 0.3 g progesterone was inserted into the vagina of each calf and remained there for 12 days. The device was then removed for six days. A new CIDR was inserted and left for 12 days.
Superstimulation started nine days after insertion of the CIDR with the injection of […] follicle stimulating hormone (FSH) s.c. at 12-hour intervals, starting with two doses of 20 mg/dose, then two doses of 15 mg/dose, and finally two doses of 10 mg by the last injections. The CIDR was removed at the time of the final FSH injection and 50 mg of LH administered i.v. 2.5 days after removal of the CIDR. […]

Substance: follicle stimulating hormone [FSH]
- oocytes retrieved per aspiration (average): nine
